Legend:
[1] = biological target: GDP-bound NRAS wild-type protein (Homo sapiens, UniProt P01111); experiment: Binding to NRAS by surface plasmon resonance (SPR), Single Cycle Kinetics; conditions: SPR, GDP-bound NRAS wild-type vs GDP-bound KRAS wild-type
[2] = biological target: GDP-bound HRAS wild-type protein (Homo sapiens, UniProt P01112); experiment: Binding to HRAS by surface plasmon resonance (SPR), Single Cycle Kinetics; conditions: SPR, GDP-bound HRAS wild-type vs GDP-bound KRAS wild-type
GDP-bound HRAS wild-type protein, sequence (P01112 whole entry): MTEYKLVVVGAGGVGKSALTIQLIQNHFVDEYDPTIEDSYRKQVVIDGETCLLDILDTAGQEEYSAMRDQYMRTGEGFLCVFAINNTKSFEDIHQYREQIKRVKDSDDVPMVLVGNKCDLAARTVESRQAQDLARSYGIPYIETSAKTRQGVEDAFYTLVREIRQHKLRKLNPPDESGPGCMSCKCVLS

GDP-bound NRAS wild-type protein, sequence (P01111 whole entry): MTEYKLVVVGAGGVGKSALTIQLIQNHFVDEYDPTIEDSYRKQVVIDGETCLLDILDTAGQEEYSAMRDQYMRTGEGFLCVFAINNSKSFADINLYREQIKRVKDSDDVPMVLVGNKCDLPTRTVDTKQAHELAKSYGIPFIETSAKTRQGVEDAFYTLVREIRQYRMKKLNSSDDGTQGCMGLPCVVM

SMILES	NRAS/KRAS (ratio of KD value with respect to NRAS to KD value with respect to KRAS) [1]	HRAS/KRAS (ratio of KD value with respect to HRAS to KD value with respect to KRAS) [2]
CCCOC[C@H]1C(=O)N[C@@H]([C@@H](C)CC)C(=O)N(C)CC(=O)N(C)[C@H]2C/C=C\CCN(C2=O)[C@@H](Cc2ccc(C)cc2)C(=O)N(C)CC(=O)N[C@@H](CCc2ccc(C(F)(F)F)c(Cl)c2)C(=O)N2C[C@H](OCC)C[C@H]2C(=O)NC2(CC(C)(C)C2)C(=O)N(C)[C@@H](C2CCCC2)C(=O)N(C)[C@H](C(=O)N(C)CC)CC(=O)N1C [PP2469]	A (a compound having 10 or more and less than 20 is denoted as A)	B (a compound having 3 or more and less than 10 is denoted as B)
CCOC[C@H]1C(=O)N[C@@H]([C@@H](C)CC)C(=O)N(C)CC(=O)N(C)[C@H]2C/C=C\CCN(C2=O)[C@@H](CC2CCCCC2)C(=O)N(C)CC(=O)N[C@@H](CCc2ccc(C(F)(F)F)c(OC)c2)C(=O)N2C[C@H](OCC)C[C@H]2C(=O)NC2(CC(C)(C)C2)C(=O)N(C)[C@@H](C(CC)CC)C(=O)N(C)[C@H](C(=O)N(C)C)CC(=O)N1C [PP2470]	A (a compound having 10 or more and less than 20 is denoted as A)	A (a compound having 10 or more and less than 20 is denoted as A)
CCCOC[C@H]1C(=O)N[C@@H]([C@@H](C)CC)C(=O)N(C)CC(=O)N(C)[C@H]2C/C=C\CCN(C2=O)[C@@H](Cc2ccc(C)cc2)C(=O)N(C)CC(=O)N[C@@H](CCc2cc(F)c(C(F)(F)F)c(F)c2)C(=O)N2C[C@@H](C)C[C@H]2C(=O)NC2(CC(C)(C)C2)C(=O)N(C)[C@@H](C2CCCC2)C(=O)N(C)[C@H](C(=O)N(C)CC)CC(=O)N1C [PP2471]	A (a compound having 10 or more and less than 20 is denoted as A)	A (a compound having 10 or more and less than 20 is denoted as A)
CCCOC[C@H]1C(=O)N[C@@H]([C@@H](C)CC)C(=O)N(C)CC(=O)N(C)[C@H]2C/C=C\CCN(C2=O)[C@@H](CC2CCC(F)(F)CC2)C(=O)N(C)CC(=O)N[C@@H](CCc2cc(F)c(C(F)(F)F)c(F)c2)C(=O)N2C[C@H](OCC)C[C@H]2C(=O)NC2(CC(C)(C)C2)C(=O)N(C)[C@@H](C(CC)CC)C(=O)N(C)[C@H](C(=O)N(C)C)CC(=O)N1C [PP2472]	A (a compound having 10 or more and less than 20 is denoted as A)	A (a compound having 10 or more and less than 20 is denoted as A)
CCOC[C@H]1C(=O)N[C@@H]([C@@H](C)CC)C(=O)N(C)CC(=O)N(C)[C@H]2C/C=C\CCN(C2=O)[C@@H](CC2CCC(F)(F)CC2)C(=O)N(C)CC(=O)N[C@@H](CCc2ccc(C(F)(F)F)c(Cl)c2)C(=O)N2C[C@@H](C)C[C@H]2C(=O)NC2(CC(C)(C)C2)C(=O)N(C)[C@@H](C(CC)CC)C(=O)N(C)[C@H](C(=O)N(C)C)CC(=O)N1C [PP2475]	AA (a compound having 20 or more is denoted as AA)	A (a compound having 10 or more and less than 20 is denoted as A)
CCO[C@@H]1C[C@H]2C(=O)NC3(CC(C)(C)C3)C(=O)N(C)[C@@H](C(CC)CC)C(=O)N(C)[C@H](C(=O)N(C)C)CC(=O)N(C)[C@@H](C(C)C)C(=O)N[C@@H]([C@@H](C)CC)C(=O)N(C)CC(=O)N(C)[C@H]3C/C=C\CCN(C3=O)[C@@H](CC3CCC(F)(F)CC3)C(=O)N(C)CC(=O)N[C@@H](CCc3ccc(C(F)(F)F)c(OC)c3)C(=O)N2C1 [PP2477]	A (a compound having 10 or more and less than 20 is denoted as A)	A (a compound having 10 or more and less than 20 is denoted as A)
CCOC[C@H]1C(=O)N[C@@H]([C@@H](C)CC)C(=O)N(C)CC(=O)N(C)[C@H]2C/C=C\CCN(C2=O)[C@@H](CC2CCCCC2)C(=O)N(C)CC(=O)N[C@@H](CCc2cc(F)c(C(F)(F)F)c(F)c2)C(=O)N2C[C@H](OCC)C[C@H]2C(=O)NC2(CC(C)(C)C2)C(=O)N(C)[C@@H](C(CC)CC)C(=O)N(C)[C@H](C(=O)N(C)C)CC(=O)N1C [PP2479]	AA (a compound having 20 or more is denoted as AA)	A (a compound having 10 or more and less than 20 is denoted as A)
CCO[C@@H]1C[C@H]2C(=O)NC3(CC(C)(C)C3)C(=O)N(C)[C@@H](C(CC)CC)C(=O)N(C)[C@H](C(=O)N(C)C)CC(=O)N(C)[C@@H](CC3CC3)C(=O)N[C@@H]([C@@H](C)CC)C(=O)N(C)CC(=O)N(C)[C@H]3C/C=C\CCN(C3=O)[C@@H](CC3CCC(F)(F)CC3)C(=O)N(C)CC(=O)N[C@@H](CCc3ccc(C(F)(F)F)c(OC)c3)C(=O)N2C1 [PP2480]	A (a compound having 10 or more and less than 20 is denoted as A)	A (a compound having 10 or more and less than 20 is denoted as A)
CCO[C@@H]1C[C@H]2C(=O)NC3(CC(C)(C)C3)C(=O)N(C)[C@@H](C(CC)CC)C(=O)N(C)[C@H](C(=O)N(C)C)CC(=O)N(C)[C@@H](C(C)C)C(=O)N[C@@H]([C@@H](C)CC)C(=O)N(C)CC(=O)N(C)[C@H]3C/C=C\CCN(C3=O)[C@@H](CC3CCC(F)(F)CC3)C(=O)N(C)CC(=O)N[C@@H](CCc3cc(F)c(C(F)(F)F)c(F)c3)C(=O)N2C1 [PP2481]	A (a compound having 10 or more and less than 20 is denoted as A)	A (a compound having 10 or more and less than 20 is denoted as A)
CCC[C@H]1C(=O)N[C@@H]([C@@H](C)CC)C(=O)N(C)CC(=O)N(C)[C@H]2C/C=C\CCN(C2=O)[C@@H](CC2CCC(F)(F)CC2)C(=O)N(C)CC(=O)N[C@@H](CCc2ccc(C(F)(F)F)c(OC)c2)C(=O)N2C[C@H](OCC)C[C@H]2C(=O)NC2(CC(C)(C)C2)C(=O)N(C)[C@@H](C(CC)CC)C(=O)N(C)[C@H](C(=O)N(C)C)CC(=O)N1C [PP2482]	A (a compound having 10 or more and less than 20 is denoted as A)	A (a compound having 10 or more and less than 20 is denoted as A)
CCCOC[C@H]1C(=O)N[C@@H]([C@@H](C)CC)C(=O)N(C)CC(=O)N(C)[C@H]2C/C=C\CCN(C2=O)[C@@H](CC2CCC(F)(F)CC2)C(=O)N(C)CC(=O)N[C@@H](CCc2ccc(C(F)(F)F)c(OC)c2)C(=O)N2C[C@@H](C)C[C@H]2C(=O)NC2(CC(C)(C)C2)C(=O)N(C)[C@@H](C(CC)CC)C(=O)N(C)[C@H](C(=O)N(C)C)CC(=O)N1C [PP2483]	A (a compound having 10 or more and less than 20 is denoted as A)	A (a compound having 10 or more and less than 20 is denoted as A)
CCCOC[C@H]1C(=O)N[C@@H]([C@@H](C)CC)C(=O)N(C)CC(=O)N(C)[C@H]2C/C=C\CCN(C2=O)[C@@H](CC2CCC(F)(F)CC2)C(=O)N(C)CC(=O)N[C@@H](CCc2ccc(C(F)(F)F)c(Cl)c2)C(=O)N2C[C@H](OCC)C[C@H]2C(=O)NC2(CC(C)(C)C2)C(=O)N(C)[C@@H](C(CC)CC)C(=O)N(C)[C@H](C(=O)N(C)C)CC(=O)N1C [PP2484]	A (a compound having 10 or more and less than 20 is denoted as A)	A (a compound having 10 or more and less than 20 is denoted as A)
CCO[C@@H]1C[C@H]2C(=O)NC3(CC(C)(C)C3)C(=O)N(C)[C@@H](C(CC)CC)C(=O)N(C)[C@H](C(=O)N(C)C)CC(=O)N(C)[C@@H](CC3CC3)C(=O)N[C@@H]([C@@H](C)CC)C(=O)N(C)CC(=O)N(C)[C@H]3C/C=C\CCN(C3=O)[C@@H](CC3CCC(F)(F)CC3)C(=O)N(C)CC(=O)N[C@@H](CCc3cc(F)c(C(F)(F)F)c(F)c3)C(=O)N2C1 [PP2485]	A (a compound having 10 or more and less than 20 is denoted as A)	A (a compound having 10 or more and less than 20 is denoted as A)
CCOC[C@H]1C(=O)N[C@@H]([C@@H](C)CC)C(=O)N(C)CC(=O)N(C)[C@H]2C/C=C\CCN(C2=O)[C@@H](CC2CCCCC2)C(=O)N(C)CC(=O)N[C@@H](CCc2ccc(C(F)(F)F)c(Cl)c2)C(=O)N2C[C@H](OCC)C[C@H]2C(=O)NC2(CC(C)(C)C2)C(=O)N(C)[C@@H](C(CC)CC)C(=O)N(C)[C@H](C(=O)N(C)C)CC(=O)N1C [PP2488]	A (a compound having 10 or more and less than 20 is denoted as A)	A (a compound having 10 or more and less than 20 is denoted as A)
CCC[C@H]1C(=O)N[C@@H]([C@@H](C)CC)C(=O)N(C)CC(=O)N(C)[C@H]2C/C=C\CCN(C2=O)[C@@H](CC2CCC(F)(F)CC2)C(=O)N(C)CC(=O)N[C@@H](CCc2cc(F)c(C(F)(F)F)c(F)c2)C(=O)N2C[C@H](OCC)C[C@H]2C(=O)NC2(CC(C)(C)C2)C(=O)N(C)[C@@H](C(CC)CC)C(=O)N(C)[C@H](C(=O)N(C)C)CC(=O)N1C [PP2489]	A (a compound having 10 or more and less than 20 is denoted as A)	A (a compound having 10 or more and less than 20 is denoted as A)
CCCOC[C@H]1C(=O)N[C@@H]([C@@H](C)CC)C(=O)N(C)CC(=O)N(C)[C@H]2C/C=C\CCN(C2=O)[C@@H](CC2CCC(F)(F)CC2)C(=O)N(C)CC(=O)N[C@@H](CCc2cc(F)c(C(F)(F)F)c(F)c2)C(=O)N2C[C@@H](C)C[C@H]2C(=O)NC2(CC(C)(C)C2)C(=O)N(C)[C@@H](C(CC)CC)C(=O)N(C)[C@H](C(=O)N(C)C)CC(=O)N1C [PP2490]	AA (a compound having 20 or more is denoted as AA)	A (a compound having 10 or more and less than 20 is denoted as A)
